Data as given in ChEMBL document CHEMBL1201862, “PubChem BioAssay data set” (2004).
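Test compounds were applied to cells in 96-well plates for 48 hours at 5 doses. At the GI50, growth is halved.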 Activity calls are given as the source filed them. Rule as the data show it: active = GI50 up to about 1.1 µM and inactive = higher.

What was measured:
Test in all cases: NCI tumour cell line growth inhibition, 48 h
[1] = tested on: 786-0
[2] = tested on: ACHN
[3] = tested on: BT-549
[4] = tested on: HCT-116
[5] = tested on: HCT-15
[6] = tested on: HL-60
[7] = tested on: KM12
[8] = tested on: M14
[9] = tested on: Malme-3M
[10] = tested on: OVCAR-5
[11] = tested on: SF-268
[12] = tested on: SF-295
[13] = tested on: SF-539
[14] = tested on: SK-MEL-5
[15] = tested on: SNB-75
[16] = tested on: SR
[17] = tested on: T47D
[18] = tested on: U-251
[19] = tested on: HOP-92
[20] = tested on: MDA-MB-435

SMILES	GI50 [1]	GI50 [2]	GI50 [3]	GI50 [4]	GI50 [5]	GI50 [6]	GI50 [7]	GI50 [8]	GI50 [9]	GI50 [10]	GI50 [11]	GI50 [12]	GI50 [13]	GI50 [14]	GI50 [15]	GI50 [16]	GI50 [17]	GI50 [18]	GI50 [19]	GI50 [20]
[O-][S+](c1ccccc1)c1ccc(/N=N/O)nc1 (stereo not given)	> 100 µM (inactive)	> 100 µM (inactive)	> 100 µM (inactive)	> 100 µM (inactive)	> 100 µM	> 100 µM (inactive)	> 100 µM (inactive)	> 100 µM (inactive)	0.492 µM (active)	> 100 µM (inactive)	> 100 µM (inactive)	> 100 µM (inactive)	> 100 µM (inactive)	> 100 µM (inactive)	> 100 µM (inactive)	> 100 µM (inactive)	82.6 µM (inactive)	> 100 µM (inactive)	–	–
O=S(=O)(c1cc(Cl)ccc1Cl)N1CCN(c2cccc(Cl)c2)CC1	> 100 µM (inactive)	> 100 µM (inactive)	> 100 µM (inactive)	> 100 µM (inactive)	> 100 µM	> 100 µM (inactive)	> 100 µM (inactive)	> 10 µM (inactive)	> 100 µM (inactive)	> 100 µM (inactive)	> 100 µM (inactive)	> 100 µM (inactive)	> 100 µM (inactive)	52.6 µM (inactive)	> 100 µM (inactive)	> 100 µM (inactive)	> 100 µM (inactive)	> 100 µM (inactive)	> 100 µM (inactive)	–
CNNC1=NS(=O)(=O)c2cc(C)c(Cl)cc2S1	> 10 µM (inactive)	> 10 µM (inactive)	> 10 µM (inactive)	> 10 µM (inactive)	> 10 µM	> 10 µM (inactive)	> 10 µM (inactive)	> 10 µM (inactive)	> 10 µM (inactive)	> 10 µM (inactive)	> 10 µM (inactive)	> 10 µM (inactive)	> 10 µM (inactive)	> 10 µM (inactive)	> 10 µM (inactive)	–	> 10 µM (inactive)	> 10 µM (inactive)	–	> 10 µM (inactive)
CCCCCCSCC/C(C)=N\OC	> 100 µM (inactive)	> 100 µM (inactive)	> 100 µM (inactive)	> 100 µM (inactive)	> 100 µM	45.3 µM (inactive)	> 100 µM (inactive)	> 100 µM (inactive)	> 100 µM (inactive)	> 100 µM (inactive)	> 100 µM (inactive)	> 100 µM (inactive)	> 100 µM (inactive)	> 100 µM (inactive)	> 100 µM (inactive)	–	–	> 100 µM (inactive)	> 100 µM (inactive)	> 100 µM (inactive)
COc1ccc(NC(=O)C2=CC(=O)c3ccc(O)cc3C2=O)c(OC)c1	> 100 µM (inactive)	> 100 µM (inactive)	–	> 100 µM (inactive)	> 100 µM	> 100 µM (inactive)	> 100 µM (inactive)	> 100 µM (inactive)	> 100 µM (inactive)	> 100 µM (inactive)	> 100 µM (inactive)	> 100 µM (inactive)	> 100 µM (inactive)	> 100 µM (inactive)	> 100 µM (inactive)	> 100 µM (inactive)	–	> 100 µM (inactive)	> 100 µM (inactive)	–
CCCN1C(=O)CC(C)N(Cc2ccccc2Cl)C1=S (stereo not given)	36.4 µM (inactive)	24.5 µM (inactive)	24.4 µM (inactive)	24.7 µM (inactive)	35.2 µM	37.4 µM (inactive)	28.9 µM (inactive)	25.7 µM (inactive)	25.4 µM (inactive)	50.2 µM (inactive)	24.4 µM (inactive)	31.9 µM (inactive)	16 µM (inactive)	17.8 µM (inactive)	–	–	10.6 µM (inactive)	24 µM (inactive)	24.2 µM (inactive)	23.7 µM (inactive)
O=C1NC(=S)NC1C(Cc1ccccc1)c1ccco1 (stereo not given)	> 100 µM (inactive)	> 100 µM (inactive)	–	> 100 µM (inactive)	> 100 µM	39.6 µM (inactive)	> 100 µM (inactive)	> 100 µM (inactive)	> 100 µM (inactive)	> 100 µM (inactive)	> 100 µM (inactive)	> 100 µM (inactive)	> 100 µM (inactive)	> 100 µM (inactive)	> 100 µM (inactive)	75.3 µM (inactive)	> 100 µM (inactive)	> 100 µM (inactive)	> 100 µM (inactive)	> 100 µM (inactive)
CC1(C)CC(=O)c2c([nH]c(=S)c(C#N)c2-c2ccc(Br)cc2)C1	78.5 µM (inactive)	66.1 µM (inactive)	> 100 µM (inactive)	58.2 µM (inactive)	45.8 µM	43.9 µM (inactive)	–	43 µM (inactive)	60.7 µM (inactive)	> 100 µM (inactive)	55.2 µM (inactive)	35.7 µM (inactive)	67.5 µM (inactive)	46.9 µM (inactive)	> 100 µM (inactive)	22.8 µM (inactive)	–	35.6 µM (inactive)	17.3 µM (inactive)	51.5 µM (inactive)
